≈ marks a conversion by molar mass, not a printed value. Structures can show the parent of a compound that is named as a salt. Where two headings read alike, the source gives them in different places.
What was measured:
A549/SN-38-4 cell line = assay: Overcoming anticancer drug resistance of A549/SN-38-4 cell line; assay type: cell-based, human; settings: for EC50: Homo sapiens, A549, read-out: Resistance overcoming effect EC50
Method: The effect of a diphenylacrylonitrile derivative on BCRP-mediated anticancer drug resistance was studied by use of the human lung cancer A549/SN-38-4 cell line, which had acquired anticancer drug resistance through BCRP expression. The human lung cancer A549 cell line or the A549/SN-38-4 cell line was suspended in 10% FBS/Ham's F-12, and the resultant suspension was inoculated into a 96-well microplate, followed by culturing at 5% CO2 and 37° C. overnight (2×10^3 cells/50 μL/well). Thereafter, a 10% FBS/Ham's F-12 solution (25 μL) containing a diphenylacrylonitrile derivative and SN-38 or mitoxantrone was added to each of the wells, followed by culturing at 5% CO2 and 37° C. for 48 hours. After completion of culturing, the number of viable cells was counted by use of TetraColor ONE according to the attached instruction manual. […] The greater the relative resistance value, the higher the level of acquired resistance.

MES-SA/Dx5 cell line = assay: Effect on multidrug resistance of MES-SA/Dx5 cell line; assay type: cell-based; settings: Homo sapiens; paclitaxel resistance, MES-SA/Dx5 (P-glycoprotein overexpression), 48 hours; read-out: Resistance overcoming effect EC50
Method: Human uterine cancer MES-SA cell line or MES-SA/Dx5 cell line which had acquired multidrug resistance through overexpression of P-glycoprotein [Cancer Res. 45, 4091-4096 (1985)] was suspended in 10% FBS/DMEM, and the resultant suspension was inoculated into a 96-well microplate, followed by culturing at 5% CO2 and 37° C. overnight (3×10^3 cells/50 μL/well). Thereafter, a solution of a diphenylacrylonitrile derivative and paclitaxel in 10% FBS/DMEM (25 μL) was added to each of the wells, followed by culturing at 5% CO2 and 37° C. for 48 hours. After completion of culturing, the number of viable cells was counted by use of TetraColor ONE according to the attached instruction manual.

P388/BCRP cell line = assay: Overcoming anticancer drug resistance in vivo (survival of tumor-implanted mice); set-up: species or system CDF1 mice; settings: compound 100 mg/kg/day + CPT-11 20 mg/kg/day i.p. once a day, 10 administrations
[1] = SN-38 resistance, concentration for 50% reduction of relative resistance value, 48 hours

Molecule	EC50 (A549/SN-38-4 cell line; [1])	EC50 (MES-SA/Dx5 cell line)	also measured
COc1ccc(/C(C#N)=C/c2ccc(O)cc2)cc1OC [Compound 1, (Z)-2-(3,4-dimethoxyphenyl)-3-(4-hydroxyphenyl)acrylonitrile]	0.051 µg/mL (≈ 0.181 µM)	> 1 µg/mL	Survival days Mean ± S.D. (P388/BCRP cell line; Table 6): 19.4 ± 1.1 days; T/C (P388/BCRP cell line; Table 6): 162%
COc1ccc(/C(C#N)=C/c2ccc(OC(=O)N3CCC(N4CCCCC4)CC3)cc2)cc1OC [Compound 2, 4-[(Z)-2-cyano-2-(3,4-dimethoxy-phenyl)-vinyl]-phenyl [1,4′]bipiperidinyl-1′-carboxylate]	0.41 µg/mL (≈ 0.862 µM)	> 1 µg/mL	
COc1ccc(/C(C#N)=C/c2ccc(OC(C)=O)cc2)cc1OC [Compound 3, 4-[(Z)-2-cyano-2-(3,4-dimethoxy-phenyl)-vinyl]-phenyl acetate]	0.02 µg/mL	> 1 µg/mL	Survival days Mean ± S.D. (P388/BCRP cell line; Table 6): 19.8 ± 0.8 days; T/C (P388/BCRP cell line; Table 6): 165%
COCCOCOc1ccc(/C=C(\C#N)c2ccc(OC)c(OC)c2)cc1 [Compound 4, (Z)-2-(3,4-dimethoxy-phenyl)-3-[4-(2-methoxy-ethoxymethoxy)-phenyl]-acrylonitrile]	0.079 µg/mL (≈ 0.214 µM)	> 1 µg/mL	
COc1ccc(/C(C#N)=C/c2cccc(O)c2)cc1OC [Compound 5, (Z)-2-(3,4-dimethoxy-phenyl)-3-(3-hydroxy-phenyl)-acrylonitrile]	0.021 µg/mL (≈ 0.0747 µM)	> 1 µg/mL	Survival days Mean ± S.D. (P388/BCRP cell line; Table 6): 19.2 ± 1.1 days; T/C (P388/BCRP cell line; Table 6): 160%
COc1ccc(/C(C#N)=C/c2ccccc2O)cc1OC [Compound 6, (Z)-2-(3,4-dimethoxy-phenyl)-3-(2-hydroxy-phenyl)-acrylonitrile]	0.098 µg/mL (≈ 0.348 µM)	> 1 µg/mL	
COc1cc(/C=C(\C#N)c2ccc(OC)c(OC)c2)ccc1O [Compound 7, (Z)-2-(3,4-dimethoxy-phenyl)-3-(4-hydroxy-3-methoxy-phenyl)-acrylonitrile]	0.025 µg/mL (≈ 0.0803 µM)	> 1 µg/mL	Survival days Mean ± S.D. (P388/BCRP cell line; Table 6): 20.0 ± 0.7 days; T/C (P388/BCRP cell line; Table 6): 167%
COc1ccc(/C(C#N)=C/c2ccc(O)c(O)c2)cc1OC [Compound 8, (Z)-3-(3,4-dihydroxy-phenyl)-2-(3,4-dimethoxy-phenyl)-acrylonitrile]	0.035 µg/mL (≈ 0.118 µM)	> 1 µg/mL	Survival days Mean ± S.D. (P388/BCRP cell line; Table 6): 19.2 ± 0.8 days; T/C (P388/BCRP cell line; Table 6): 160%
COc1ccc(/C(C#N)=C/c2cccc(O)c2OC)cc1OC [Compound 9, (Z)-2-(3,4-dimethoxy-phenyl)-3-(3-hydroxy-2-methoxy-phenyl)-acrylonitrile]	0.028 µg/mL (≈ 0.0899 µM)	> 1 µg/mL	
COc1ccc(/C(C#N)=C/c2cc(C)c(O)c(C)c2)cc1OC [Compound 10, (Z)-2-(3,4-dimethoxy-phenyl)-3-(4-hydroxy-3,5-dimethyl-phenyl)-acrylonitrile]	0.023 µg/mL (≈ 0.0743 µM)	> 1 µg/mL	
CCOc1cc(/C=C(\C#N)c2ccc(OC)c(OC)c2)ccc1O [Compound 11, (Z)-2-(3,4-dimethoxy-phenyl)-3-(3-ethoxy-4-hydroxy-phenyl)-acrylonitrile]	0.047 µg/mL (≈ 0.144 µM)	> 1 µg/mL	Survival days Mean ± S.D. (P388/BCRP cell line; Table 6): 19.4 ± 0.5 days; T/C (P388/BCRP cell line; Table 6): 162%
COc1ccc(/C(C#N)=C/c2ccc(Br)cc2)cc1OC [Compound 12, (Z)-3-(4-bromo-phenyl)-2-(3,4-dimethoxy-phenyl)-acrylonitrile]	0.28 µg/mL (≈ 0.813 µM)	> 1 µg/mL	
COc1ccc(/C(C#N)=C/c2cccc(F)c2)cc1OC [Compound 13, (Z)-2-(3,4-dimethoxy-phenyl)-3-(3-fluoro-phenyl)-acrylonitrile]	0.013 µg/mL (≈ 0.0459 µM)	> 1 µg/mL	Survival days Mean ± S.D. (P388/BCRP cell line; Table 6): 20.6 ± 0.9 days; T/C (P388/BCRP cell line; Table 6): 172%
CCCCOc1ccc(/C(C#N)=C/c2ccc(O)cc2)cc1 [Compound 14, (Z)-2-(4-butoxy-phenyl)-3-(4-hydroxy-phenyl)-acrylonitrile]	0.047 µg/mL (≈ 0.16 µM)	> 1 µg/mL	
COc1cc(/C(C#N)=C/c2ccc(O)cc2)cc(OC)c1OC [Compound 15, (Z)-3-(4-hydroxy-phenyl)-2-(3,4,5-trimethoxy-phenyl)-acrylonitrile]	0.023 µg/mL (≈ 0.0739 µM)	> 1 µg/mL	
N#C/C(=C\c1ccc(O)cc1)c1ccc(O)cc1 [Compound 16, (Z)-2,3-bis-(4-hydroxy-phenyl)-acrylonitrile]	0.098 µg/mL (≈ 0.413 µM)	> 1 µg/mL	Survival days Mean ± S.D. (P388/BCRP cell line; Table 6): 19.2 ± 0.4 days; T/C (P388/BCRP cell line; Table 6): 160%
COc1ccc(/C(C#N)=C/c2cccc(N)c2)cc1OC [Compound 57, (Z)-3-(3-amino-phenyl)-2-(3,4-dimethoxy-phenyl)-acrylonitrile]	0.037 µg/mL (≈ 0.132 µM)		Survival days Mean ± S.D. (P388/BCRP cell line; Table 7): 18.8 ± 0.8 days; T/C (P388/BCRP cell line; Table 7): 145%

Molecule	EC50 (A549/SN-38-4 cell line; [1])	EC50 (MES-SA/Dx5 cell line)	also measured
CCOC(=O)CCCCCCOc1ccc(/C=C(\C#N)c2ccc(OC)c(OC)c2)cc1 [Compound 66, ethyl 7-[4-[(Z)-2-cyano-2-(3,4-dimethoxy-phenyl)-vinyl]-phenoxy]-heptanoate]	0.71 µg/mL (≈ 1.62 µM)		
COc1ccc(/C=C(\C#N)c2ccc(OC(=O)CCCCCCCBr)cc2)cc1OC [Compound 67, 4-[(Z)-1-cyano-2-(3,4-dimethoxy-phenyl)-vinyl]-phenyl 8-bromo-octanoate]	0.065 µg/mL (≈ 0.134 µM)		
COc1ccc(/C(C#N)=C/c2cccc(N)c2)cc1OC [Compound 68, (Z)-3-(3-amino-phenyl)-2-(3,4-dimethoxy-phenyl)-acrylonitrile hydrochloride]			Resistance overcoming effect EC50 (A549/SN-38-4 cell line): 0.048 µg/mL; Survival days Mean ± S.D. (P388/BCRP cell line; Table 7, hydrochloride): 18.8 ± 2.9 days
COc1ccc(/C(C#N)=C/c2ccc(OP(=O)(O)O)cc2)cc1OC [Compound 70, mono-{4-[(Z)-2-cyano-2-(3,4-dimethoxy-phenyl)-vinyl]-phenyl} phosphate]			Resistance overcoming effect EC50 (A549/SN-38-4 cell line): 0.24 µg/mL
COc1ccc(/C(C#N)=C/c2ccc(OP(=O)(O)O)c(OC)c2)cc1OC [Compound 71, mono-{4-[(Z)-2-cyano-2-(3,4-dimethoxy-phenyl)-vinyl]-2-methoxy-phenyl} phosphate]			Resistance overcoming effect EC50 (A549/SN-38-4 cell line): 0.29 µg/mL
COc1ccc(C(C#N)=Cc2cccc(NC(C)=O)c2)cc1OC [Compound 72, N-[3-[2-cyano-2-(3,4-dimethoxy-phenyl)-vinyl]-phenyl]-acetamide]	0.028 µg/mL (≈ 0.0869 µM)		
CCN(CC)CC.COc1ccc(/C(C#N)=C/c2ccc(OS(=O)(=O)O)cc2)cc1OC [Compound 74, sulphoric acid mono-{4-[(Z)-2-cyano-2-(3,4-dimethoxy-phenyl)-vinyl]-phenyl} ester triethylammonium salt]			Resistance overcoming effect EC50 (A549/SN-38-4 cell line; [1]): >1.0 µg/mL
COc1ccc(/C(C#N)=C/c2cc([N+](=O)[O-])ccc2O)cc1OC [Compound 76, (Z)-2-(3,4-dimethoxy-phenyl)-3-(2-hydroxy-5-nitro-phenyl)-acrylonitrile]	0.82 µg/mL (≈ 2.51 µM)		
COc1ccc(/C(C#N)=C/c2ccc(F)c([N+](=O)[O-])c2)cc1OC [Compound 77, (Z)-2-(3,4-dimethoxy-phenyl)-3-(4-fluoro-3-nitro-phenyl)-acrylonitrile]	0.3 µg/mL (≈ 0.914 µM)		
COc1ccc(/C(C#N)=C/c2cc(O)c(OC)c(OC)c2)cc1OC [Compound 78, (Z)-2-(3,4-dimethoxy-phenyl)-3-(3-hydroxy-4,5-dimethoxy-phenyl)-acrylonitrile]	0.053 µg/mL (≈ 0.155 µM)		
COc1ccc(/C(C#N)=C/c2cc(OC)c(O)c(OC)c2)cc1OC [Compound 79, (Z)-2-(3,4-dimethoxy-phenyl)-3-(4-hydroxy-3,5-dimethoxy-phenyl)-acrylonitrile]	0.017 µg/mL (≈ 0.0498 µM)		
(Z)-2-(3,4-dimethoxyphenyl)-3-(4-β-D-glucopyranosyl-phenyl)-acrylonitrile [Compound 44]			Resistance overcoming effect EC50 (A549/SN-38-4 cell line): 0.024 µg/mL
(Z)-2-(3,4-dimethoxyphenyl)-3-(4-β-maltosyl-phenyl)-acrylonitrile [Compound 51]			Resistance overcoming effect EC50 (A549/SN-38-4 cell line; [1]): 0.045 µg/mL
(Z)-2-(3,4-dimethoxyphenyl)-3-(4-β-maltotriosyl-phenyl)-acrylonitrile [Compound 54]			Resistance overcoming effect EC50 (A549/SN-38-4 cell line; [1]): 0.26 µg/mL
(Z)-2-(3,4-dimethoxyphenyl)-3-[4-(6-phospho-β-D-glucopyranosyl)-phenyl]-acrylonitrile [Compound 73]			Resistance overcoming effect EC50 (A549/SN-38-4 cell line): 1.0 µg/mL
(Z)-2-(3,4-dimethoxyphenyl)-3-[4-(6-phospho-β-D-glucopyranosyl)-phenyl]-acrylonitrile sodium salt [Compound 75]			Resistance overcoming effect EC50 (A549/SN-38-4 cell line; [1]): >1.0 µg/mL

Reference: patent US7371773B2, “Breast cancer resistance protein (BCRP) inhibitor” (Kabushiki Kaisha Yakult Honsha, priority 2003, dated 2008)
